The experiment deals with TNFα trimer (Homo sapiens, UniProt P01375). As to the kind of experiment: TNFα FP Competitive Binding Assay. Particulars: FP binding assay; 20 nM TNFα trimer, 1 nM OregonGreen488 probe; read-out: TNF IC50. The essentials:
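Compounds in 12-point 1:3 series, final top 100 μM (2.0% DMSO) or 338 μM (3.4% DMSO), displace 1 nM fluorescent probe from 20 nM TNFα trimer. After 18-24 h incubation plus 1 h rt equilibration, background-subtracted polarization measured and curves fitted with variable slope.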

SMILES strings stand for the structures.

Sequence of TNFα trimer (P01375 77-233 limits assumed): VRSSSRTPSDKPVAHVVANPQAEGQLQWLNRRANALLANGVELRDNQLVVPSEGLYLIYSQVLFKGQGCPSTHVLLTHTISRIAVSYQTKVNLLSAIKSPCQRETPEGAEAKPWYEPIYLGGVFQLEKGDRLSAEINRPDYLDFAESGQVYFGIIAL

The IC50 is the midpoint of a concentration-inhibition curve. As to `Cn1c(=O)c2ccc(-c3cnc(NC4CCNC(=O)C4)nc3)cc2n1Cc1cc(CO)ccc1OC(F)F` (stereo not shown) [Example 16.5], the IC50 is less than 1000 nM.
For the compound `Cn1c(=O)c2ccc(-c3cnc(NC4CCNC4=O)nc3)cc2n1Cc1cc(CO)ccc1OC(F)F` (stereo not shown) [Example 16.6], the IC50 was in the range of 1000 to 10000 nM.
Turning to `Cn1c(=O)c2ccc(-c3cnc(C(C)(C)O)nc3)cc2n1Cc1cc(CO)ccc1OC(F)F` [Example 16.7], the IC50 was less than 1000 nM.
Under `CC(=O)N1CCN(c2ncc(-c3ccc4c(=O)n(C)n(Cc5cc(CO)ccc5OC(F)F)c4c3)cn2)CC1` [Example 16.8] stands less than 1000 nM.
Under `CN1CCC(Nc2ncc(-c3ccc4c(=O)n(C)n(Cc5cc(CO)ccc5OC(F)F)c4c3)cn2)CC1=O` (stereo not shown) [Example 16.9] stands less than 1000 nM; under `Cn1c(=O)c2ccc(-c3cnc(N4CCN5C(=O)NC[C@@H]5C4)nc3)cc2n1Cc1nc(CO)ccc1C(F)(F)F` [Example 16.10], less than 1000 nM; under `Cn1c(=O)c2cnc(-c3cnc(N4CCOCC4)nc3)cc2n1Cc1ccccc1OC(F)F` [Example 17, 1-(2-(Difluoromethoxy)benzyl)-2-methyl-6-(2-morpholinopyrimidin-5-yl)-1H-pyrazolo[4,3-c]pyridin-3(2H)-one], greater than 10000 nM.
With `Cc1ccc(OC(F)F)c(Cn2c3cc(-c4cnc(C(C)(C)O)nc4)c(F)cc3c(=O)n2C)c1` [Example 17.1], the concentration for half-maximal inhibition (IC50) was less than 1000 nM.
`Cc1ccc(OC(F)F)c(Cn2c3cc(-c4cnc(C(C)(C)O)nc4C)c(F)cc3c(=O)n2C)c1` [Example 17.2]: the IC50 is less than 1000 nM.
Under `Cc1ccc(OC(F)F)c(Cn2c3cc(-c4cnc(N5CCN(C(=O)CO)C[C@H]5C)nc4)c(F)cc3c(=O)n2C)c1` [Example 17.3] stands less than 1000 nM.
`Cc1ccc(OC(F)F)c(Cn2c3cc(-c4cnc(C(C)(C)CO)nc4)c(F)cc3c(=O)n2C)c1` [Example 17.4]: the IC50 is less than 1000 nM.
Under `Cn1c(=O)c2ccc(-c3cnc(N4CCN5C(=O)NC[C@H]5C4)nc3)cc2n1Cc1cc(CO)ccc1OC(F)F` [Example 18, (S)-7-(5-(1-(2-(Difluoromethoxy)-5-(hydroxymethyl)benzyl)-2-methyl-3-oxo-2,3-dihydro-1H-indazol-6-yl)pyrimidin-2-yl)hexahydroimidazo[1,5-a]pyrazin-3(2H)-one] stands less than 1000 nM.
`CC(=O)N1CCN(c2ncc(-c3ccc4c(=O)n(C)n(Cc5cc(C)ccc5SC(F)F)c4n3)cn2)C[C@H]1C` [Example 18.1]: the IC50 is less than 1000 nM.
Then `CC(=O)N1CCN(c2ncc(-c3ccc4c(=O)n(C)n(Cc5cc(C)ccc5OC(F)F)c4n3)cn2)C[C@H]1C` [Example 18.2], with less than 1000 nM; and `CC(=O)N1CCN(c2ncc(-c3ccc4c(=O)n(C)n(Cc5cc(C)ccc5Cl)c4n3)cn2)C[C@H]1C` [Example 18.3], with less than 1000 nM; and `C[C@@H]1C[C@@H](O)CCN1c1ncc(-c2ccc3c(=O)n(C)n(Cc4ccccc4OC(F)F)c3c2)cn1` [Example 19, 1-(2-(Difluoromethoxy)benzyl)-6-(2-((2R,4S)-4-hydroxy-2-methylpiperidin-1-yl)pyrimidin-5-yl)-2-methyl-1H-indazol-3(2H)-one], with less than 1000 nM.
Consider `CC(=O)N1CCN(c2ncc(-c3ccc4c(=O)n(C)n(Cc5nc(C)ccc5C(F)(F)F)c4c3)cn2)C[C@H]1C` [Example 19.1], for which the IC50 was less than 1000 nM.
With `Cc1ccc(C(F)(F)F)c(Cn2c3cc(-c4cnc(N5CCN6C(=O)NC[C@H]6C5)nc4)ccc3c(=O)n2C)n1` [Example 19.2], the IC50 is less than 1000 nM.
As to `Cc1ccc(C(F)(F)F)c(Cn2c3cc(-c4cnc(N5CCN(C(=O)CO)[C@H](C)C5)nc4)ccc3c(=O)n2C)n1` [Example 19.3], the IC50 is less than 1000 nM.
For the compound `Cc1ccc(C(F)(F)F)c(Cn2c3cc(-c4cnc(N5CCN6C(=O)OC[C@H]6C5)nc4)ccc3c(=O)n2C)n1` [Example 19.4], the 50% inhibitory concentration (IC50) is less than 1000 nM.
Under `Cc1ccc(C(F)(F)F)c(Cn2c3cc(-c4cnc(N5CCN(C(=O)CO)C[C@H]5C)nc4)ccc3c(=O)n2C)n1` [Example 19.5] stands less than 1000 nM; under `Cn1c(=O)c2ccc(-c3cnc(C4(O)CCN(C=O)CC4)nc3)cc2n1Cc1ccccc1OC(F)F` [Example 20, 4-(5-(1-(2-(Difluoromethoxy)benzyl)-2-methyl-3-oxo-2,3-dihydro-1H-indazol-6-yl)pyrimidin-2-yl)-4-hydroxypiperidine-1-carbaldehyde], 1000 to 10000 nM; under `Cc1ccc(OC(F)F)c(Cn2c3cc(-c4cnc(N5CCC(C(N)=O)C5)nc4)ccc3c(=O)n2C)c1` (stereo not shown) [Example 20.1], 1000 to 10000 nM.
Consider `Cc1ccc(OC(F)F)c(Cn2c3cc(-c4cnc(N5CCN6C(=O)OC[C@@H]6C5)nc4)ccc3c(=O)n2C)c1` [Example 20.2], for which the IC50 is less than 1000 nM.
Take `CC(=O)N1CCN(c2ncc(-c3ccc4c(=O)n(C)n(Cc5cc(C)ccc5OC(F)F)c4c3)cn2)[C@H](C)C1` [Example 20.4]: the IC50 is less than 1000 nM.
For the compound `CC[C@@H]1CN(C(C)=O)CCN1c1ncc(-c2ccc3c(=O)n(C)n(Cc4cc(C)ccc4OC(F)F)c3c2)cn1` [Example 20.5], the 50% inhibitory concentration (IC50) was less than 1000 nM.
Consider `C[C@H](N)C(=O)OCc1ccc(OC(F)F)c(Cn2c3cc(-c4cnc(N5CCN6C(=O)OC[C@@H]6C5)nc4)ccc3c(=O)n2C)c1` [Example 21, (S)-4-(Difluoromethoxy)-3-((2-methyl-3-oxo-6-(2-((S)-3-oxotetrahydro-1H-oxazolo[3,4-a]pyrazin-7(3H)-yl)pyrimidin-5-yl)-2,3-dihydro-1H-indazol-1-yl)methyl)benzyl 2-aminopropanoate], for which the IC50 was less than 1000 nM.
With `COCC(=O)N1CCN(c2ncc(-c3ccc4c(=O)n(C)n(Cc5cc(C)ccc5OC(F)F)c4c3)cn2)C[C@H]1C` [Example 21.1], the IC50 is less than 1000 nM.
In the case of `Cc1ccc(OC(F)F)c(Cn2c3cc(-c4cnc(N5CCN(C(=O)C6COC6)[C@H](C)C5)nc4)ccc3c(=O)n2C)c1` [Example 21.2], the IC50 was less than 1000 nM.
Consider `Cc1ccc(OC(F)F)c(Cn2c3cc(-c4cnc(N5CCN(C(=O)C6CCO6)[C@H](C)C5)nc4)ccc3c(=O)n2C)c1` (stereo partly shown) [Example 21.3], for which the IC50 is less than 1000 nM.
Consider `Cc1ccc(OC(F)F)c(Cn2c3cc(-c4cnc(N5CCN(C(=O)CC#N)[C@H](C)C5)nc4)ccc3c(=O)n2C)c1` [Example 21.4], for which the IC50 is less than 1000 nM.
Turning to `Cc1ccc(OC(F)F)c(Cn2c3cc(-c4cnc(N5CCC(O)CC5)nc4)ccc3c(=O)n2C)c1` [Example 22, 1-(2-(Difluoromethoxy)-5-methylbenzyl)-6-(2-(4-hydroxypiperidin-1-yl)pyrimidin-5-yl)-2-methyl-1H-indazol-3(2H)-one], the 50% inhibitory concentration (IC50) is less than 1000 nM.
Under `Cc1ccc(OC(F)F)c(Cn2c3cc(-c4cnc(N5CCN(C(=O)CO)CC5)nc4)ccc3c(=O)n2C)c1` [Example 22.1] stands less than 1000 nM.
On to `CC(=O)N1CCN(c2ncc(-c3ccc4c(=O)n(C)n(Cc5cc(C)ccc5OC(F)F)c4c3)cn2)[C@@H](C)C1` [Example 22.2], for which the IC50 is less than 1000 nM.
Under `Cc1ccc(OC(F)F)c(Cn2c3cc(-c4cnc(N5CCN(C(=O)CO)[C@H](C)C5)nc4)ccc3c(=O)n2C)c1` [Example 22.3] stands less than 1000 nM; under `Cc1ccc(OC(F)F)c(Cn2c3cc(-c4cnc(N5CCN(C(=O)CO)C[C@H]5C)nc4)ccc3c(=O)n2C)c1` [Example 22.4], less than 1000 nM; under `Cc1ccc(OC(F)F)c(Cn2c3cc(-c4cnc(C(C)(C)O)nc4C)ccc3c(=O)n2C)c1` [Example 22.5], less than 1000 nM.

Source of the values: patent US10160748B2 (AbbVie Inc., priority 2015, dated 2018).
